Reference: PubChem BioAssay (NCI)
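Protocol summary: plate cells (96-well), add compound at 5 concentrations, incubate 48 h, interpolate endpoints linearly. GI50 = concentration required for 50% inhibition of growth. Definition used: TGI = concentration required for complete inhibition of growth.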

Assays:
Assay in all cases: growth of human tumour cells (NCI), 48 h
U251 CNS = tested on: U251 CNS
RXF 393 renal = tested on: RXF 393 renal
SK-MEL-2 melanoma = tested on: SK-MEL-2 melanoma
ACHN renal = tested on: ACHN renal
NCI-H23 lung = tested on: NCI-H23 lung
A549 NSCLC = tested on: A549 NSCLC
HOP-62 NSCLC = tested on: HOP-62 NSCLC
NCI-H226 lung = tested on: NCI-H226 lung
LOX IMVI melanoma = tested on: LOX IMVI melanoma
HCT-116 colon = tested on: HCT-116 colon
SF-295 CNS = tested on: SF-295 CNS
HCT-15 colon = tested on: HCT-15 colon
DU-145 prostate = tested on: DU-145 prostate
MOLT-4 leukemia = tested on: MOLT-4 leukemia
SF-268 CNS = tested on: SF-268 CNS
RPMI-8226 leukemia = tested on: RPMI-8226 leukemia
SK-OV-3 ovarian = tested on: SK-OV-3 ovarian
M14 melanoma = tested on: M14 melanoma
IGROV1 ovarian = tested on: IGROV1 ovarian
COLO 205 colon = tested on: COLO 205 colon
PC-3 prostate = tested on: PC-3 prostate
T-47D breast = tested on: T-47D breast
SN12C renal = tested on: SN12C renal
MALME-3M melanoma = tested on: MALME-3M melanoma
TK-10 renal = tested on: TK-10 renal
CCRF-CEM leukemia = tested on: CCRF-CEM leukemia
NCI-H460 lung = tested on: NCI-H460 lung
EKVX NSCLC = tested on: EKVX NSCLC
OVCAR-8 ovarian = tested on: OVCAR-8 ovarian
HT29 colon = tested on: HT29 colon
SK-MEL-5 melanoma = tested on: SK-MEL-5 melanoma
A498 renal = tested on: A498 renal
SW-620 colon = tested on: SW-620 colon
HL-60(TB) leukemia = tested on: HL-60(TB) leukemia
SK-MEL-28 melanoma = tested on: SK-MEL-28 melanoma
SR leukemia = tested on: SR leukemia
UACC-257 melanoma = tested on: UACC-257 melanoma
NCI-H522 lung = tested on: NCI-H522 lung
UACC-62 melanoma = tested on: UACC-62 melanoma
K-562 leukemia = tested on: K-562 leukemia
HOP-92 NSCLC = tested on: HOP-92 NSCLC
SF-539 CNS = tested on: SF-539 CNS
OVCAR-4 ovarian = tested on: OVCAR-4 ovarian
OVCAR-5 ovarian = tested on: OVCAR-5 ovarian
786-0 renal = tested on: 786-0 renal
SNB-75 CNS = tested on: SNB-75 CNS
OVCAR-3 ovarian = tested on: OVCAR-3 ovarian
MDA-MB-231 breast = tested on: MDA-MB-231 breast
MCF7 breast = tested on: MCF7 breast
UO-31 renal = tested on: UO-31 renal
BT-549 breast = tested on: BT-549 breast
HS 578T breast = tested on: HS 578T breast
KM12 colon = tested on: KM12 colon
MDA-MB-435 = tested on: MDA-MB-435
CAKI-1 renal = tested on: CAKI-1 renal
HCC-2998 colon = tested on: HCC-2998 colon
NCI/ADR-RES ovarian = tested on: NCI/ADR-RES ovarian
SNB-19 CNS = tested on: SNB-19 CNS

## COc1ccc(C2CC(c3cc(Cl)c(C)cc3O)=NN2c2ccc(S(N)(=O)=O)cc2)cc1OC (configuration not stated)
U251 CNS
  GI50: 3.71 µM
  TGI: 14 µM
RXF 393 renal
  GI50: 2.88 µM
  TGI: 7.52 µM
SK-MEL-2 melanoma
  GI50: 5.87 µM
  TGI: 32.7 µM
ACHN renal
  GI50: 3.15 µM
  TGI: 12.2 µM
NCI-H23 lung
  GI50: 3.11 µM
  TGI: 13.6 µM
A549 NSCLC
  GI50: 3.54 µM
  TGI: 19.7 µM
HOP-62 NSCLC
  GI50: 3.92 µM
  TGI: 14.1 µM
NCI-H226 lung
  GI50: 5.62 µM
  TGI: 23.1 µM
LOX IMVI melanoma
  GI50: 3.35 µM
  TGI: 11 µM
HCT-116 colon
  GI50: 1.72 µM
  TGI: 4.36 µM
SF-295 CNS
  GI50: 2.7 µM
  TGI: 6.24 µM
HCT-15 colon
  GI50: 3.32 µM
  TGI: 20.2 µM
DU-145 prostate
  GI50: 4.49 µM
  TGI: 21.7 µM
MOLT-4 leukemia
  GI50: 5.29 µM
  TGI: > 100 µM
SF-268 CNS
  GI50: 4.74 µM
  TGI: > 100 µM
RPMI-8226 leukemia
  GI50: 4.1 µM
  TGI: > 100 µM
SK-OV-3 ovarian
  GI50: 4.51 µM
  TGI: 38.3 µM
M14 melanoma
  GI50: 2.61 µM
  TGI: 7.2 µM
IGROV1 ovarian
  GI50: 2.34 µM
  TGI: 5.46 µM
COLO 205 colon
  GI50: 1.93 µM
  TGI: 3.41 µM
PC-3 prostate
  GI50: 2.61 µM
  TGI: 13.7 µM
T-47D breast
  GI50: 3.1 µM
  TGI: 13.3 µM
SN12C renal
  GI50: 3.7 µM
  TGI: 30 µM
MALME-3M melanoma
  GI50: 3.65 µM
  TGI: 24.6 µM
TK-10 renal
  GI50: 3.97 µM
  TGI: 18.4 µM
CCRF-CEM leukemia
  GI50: 5.35 µM
  TGI: > 100 µM
NCI-H460 lung
  GI50: 2.5 µM
  TGI: 5.85 µM
EKVX NSCLC
  GI50: 4.15 µM
  TGI: > 100 µM
OVCAR-8 ovarian
  GI50: 3.39 µM
  TGI: 17.9 µM
HT29 colon
  GI50: 2.24 µM
  TGI: 6.48 µM
SK-MEL-5 melanoma
  GI50: 4.28 µM
  TGI: 15.2 µM
A498 renal
  GI50: 3.98 µM
  TGI: 24.7 µM
SW-620 colon
  GI50: 4.08 µM
  TGI: 26.6 µM
HL-60(TB) leukemia
  GI50: 3.42 µM
  TGI: > 100 µM
SK-MEL-28 melanoma
  GI50: 4.29 µM
  TGI: 17.7 µM
SR leukemia
  GI50: 2.82 µM
  TGI: > 100 µM
UACC-257 melanoma
  GI50: 4.22 µM
  TGI: 19.7 µM
NCI-H522 lung
  GI50: 2.95 µM
  TGI: 9.61 µM
UACC-62 melanoma
  GI50: 3.13 µM
  TGI: 12.9 µM
K-562 leukemia
  GI50: 3.18 µM
  TGI: > 100 µM
HOP-92 NSCLC
  GI50: 1.81 µM
  TGI: 7.42 µM
SF-539 CNS
  GI50: 2.1 µM
  TGI: 4.75 µM
OVCAR-4 ovarian
  GI50: 4.18 µM
  TGI: > 100 µM
OVCAR-5 ovarian
  GI50: 2.25 µM
  TGI: 6.36 µM
786-0 renal
  GI50: 2.37 µM
  TGI: 5.04 µM
SNB-75 CNS
  GI50: 2.7 µM
  TGI: 97.2 µM
OVCAR-3 ovarian
  GI50: 3.37 µM
  TGI: 9.8 µM
MDA-MB-231 breast
  GI50: 3.81 µM
  TGI: 12.5 µM
MCF7 breast
  GI50: 3.07 µM
  TGI: 13.6 µM
UO-31 renal
  GI50: 3.3 µM
  TGI: > 100 µM
BT-549 breast
  GI50: 3.03 µM
  TGI: 13.4 µM
HS 578T breast
  GI50: 3.29 µM
  TGI: 34.3 µM
KM12 colon
  GI50: 3.07 µM
  TGI: 8.77 µM
MDA-MB-435
  GI50: 3.97 µM
  TGI: 24 µM
CAKI-1 renal
  GI50: 2.78 µM
  TGI: > 100 µM
HCC-2998 colon
  GI50: 2.72 µM
  TGI: 7.25 µM
NCI/ADR-RES ovarian
  GI50: 3.39 µM
  TGI: 14.1 µM
SNB-19 CNS
  GI50: 5.53 µM
  TGI: 89.3 µM

## O=S1CCN(Cc2ccc(-c3ccc4ncnc(Nc5ccc(OCc6cccc(F)c6)c(Cl)c5)c4c3)o2)CC1
U251 CNS
  GI50: 9.4 µM
  TGI: > 25 µM
RXF 393 renal
  GI50: 3.85 µM
  TGI: > 23.6 µM
SK-MEL-2 melanoma
  GI50: 4.41 µM
  TGI: 9.97 µM
ACHN renal
  GI50: 0.082 µM
  TGI: > 25 µM
NCI-H23 lung
  GI50: 8.42 µM
  TGI: > 25 µM
A549 NSCLC
  GI50: 5.92 µM
  TGI: > 25 µM
HOP-62 NSCLC
  GI50: 14.8 µM
  TGI: > 25 µM
NCI-H226 lung
  GI50: 4.4 µM
  TGI: > 25 µM
LOX IMVI melanoma
  GI50: 4.65 µM
  TGI: 10.5 µM
HCT-116 colon
  GI50: 8.66 µM
  TGI: > 25 µM
SF-295 CNS
  GI50: 5.83 µM
  TGI: > 19 µM
HCT-15 colon
  GI50: 5.77 µM
  TGI: > 25 µM
DU-145 prostate
  GI50: 4.26 µM
  TGI: > 25 µM
MOLT-4 leukemia
  GI50: 4.94 µM
  TGI: > 20.1 µM
SF-268 CNS
  GI50: 8.56 µM
  TGI: > 25 µM
RPMI-8226 leukemia
  GI50: 6.65 µM
  TGI: > 22.8 µM
SK-OV-3 ovarian
  GI50: 0.00587 µM
  TGI: > 25 µM
M14 melanoma
  GI50: 5.84 µM
  TGI: > 18.6 µM
IGROV1 ovarian
  GI50: 0.226 µM
  TGI: 5.29 µM
COLO 205 colon
  GI50: 4.77 µM
  TGI: 13.5 µM
PC-3 prostate
  GI50: 8.91 µM
  TGI: > 25 µM
T-47D breast
  GI50: 1.95 µM
  TGI: 18.3 µM
SN12C renal
  GI50: 7.77 µM
  TGI: > 25 µM
MALME-3M melanoma
  GI50: 6.01 µM
  TGI: 23.2 µM
TK-10 renal
  GI50: 0.00776 µM
  TGI: > 16.3 µM
CCRF-CEM leukemia
  GI50: 6.89 µM
  TGI: 24.8 µM
NCI-H460 lung
  GI50: 7.62 µM
  TGI: > 25 µM
EKVX NSCLC
  GI50: 0.0304 µM
  TGI: > 25 µM
OVCAR-8 ovarian
  GI50: 7.68 µM
  TGI: > 25 µM
HT29 colon
  GI50: 4.22 µM
  TGI: 10.8 µM
SK-MEL-5 melanoma
  GI50: 3.09 µM
  TGI: 6.42 µM
A498 renal
  GI50: 0.862 µM
  TGI: > 16.7 µM
SW-620 colon
  GI50: 7.34 µM
  TGI: > 25 µM
HL-60(TB) leukemia
  GI50: 6.3 µM
  TGI: 15.7 µM
SK-MEL-28 melanoma
  GI50: 5.75 µM
  TGI: > 25 µM
SR leukemia
  GI50: 5.38 µM
  TGI: 17.5 µM
UACC-257 melanoma
  GI50: 5.43 µM
  TGI: > 20.5 µM
NCI-H522 lung
  GI50: 0.647 µM
  TGI: 15.8 µM
UACC-62 melanoma
  GI50: 4.12 µM
  TGI: 10.6 µM
K-562 leukemia
  GI50: 6.53 µM
  TGI: > 25 µM
HOP-92 NSCLC
  GI50: 3.95 µM
  TGI: 22.4 µM
SF-539 CNS
  GI50: 6.54 µM
  TGI: > 20.9 µM
OVCAR-4 ovarian
  GI50: 5.26 µM
  TGI: > 25 µM
OVCAR-5 ovarian
  GI50: 5.8 µM
  TGI: > 25 µM
786-0 renal
  GI50: 6.54 µM
  TGI: > 25 µM
SNB-75 CNS
  GI50: 7.92 µM
  TGI: > 25 µM
OVCAR-3 ovarian
  GI50: 4.86 µM
  TGI: > 25 µM
MDA-MB-231 breast
  GI50: 5.19 µM
  TGI: > 16.1 µM
MCF7 breast
  GI50: 6.1 µM
  TGI: > 25 µM
UO-31 renal
  GI50: 0.473 µM
  TGI: 24.9 µM
BT-549 breast
  GI50: 6.2 µM
  TGI: > 23.9 µM
HS 578T breast
  GI50: 4.63 µM
  TGI: > 21.6 µM
KM12 colon
  GI50: 6.72 µM
  TGI: > 22.8 µM
MDA-MB-435
  GI50: 7.1 µM
  TGI: > 25 µM
CAKI-1 renal
  GI50: 0.041 µM
  TGI: > 25 µM
HCC-2998 colon
  GI50: 5.34 µM
  TGI: 14.7 µM
NCI/ADR-RES ovarian
  GI50: 4.82 µM
  TGI: > 25 µM
SNB-19 CNS
  GI50: > 7.82 µM
  TGI: > 25 µM
